From patent publication US20140113091A1, “MEDICAL SUPPLY” (Toray Industries, Inc., priority 2011, published 2014)

Tested on: blood collected from volunteers
Experiment: Measurement of whole blood clotting time (Sonoclot, ACT ONSET value)
Set-up: species or system human
Method: To a cuvette (NON-ACTIVATED CLOTTING TEST KIT), 18 μL of physiological saline was placed, and 14.8 μL of calcicol was added thereto, followed by further adding 342 μL of blood supplemented with citric acid. Thereafter, the measurement using Sonoclot blood coagulation/platelet function analyzer (IMI Co., Ltd.) was carried out to define the obtained ACT ONSET value as whole blood clotting time.

CC1CNc2c(cccc2S(=O)(=O)N[C@@H](CCCNC(=N)N)C(=O)N2CC[C@@H](C)C[C@@H]2C(=O)O)C1 (mixture of isomers) [argatroban]
whole blood clotting time (2 μM argatroban solution): 531 s
whole blood clotting time (10 μM argatroban solution): 746 s
whole blood clotting time (20 μM argatroban solution): 849 s
